The subject of experiment [1] is mTORC2 activity: phosphorylated AKT Ser473 (pAKT S473) in PC3 cells. The experiment can be described thus: mTOR target engagement assay, immunofluorescent cell-based, mTORC2 readout. To be noted: rated class, 90 min treatment. In a few lines:
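Read-out is immunofluorescence intensity, normalized to DMSO-only wells and fitted to a sigmoidal Hill equation for IC50. The mTORC1 arm probes phospho-4E-BP1 Thr37/46 and the mTORC2 arm phospho-AKT Ser473.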

Experiment [2] relates to mTORC1 activity: phosphorylated 4E-BP1 Thr37/46 (p4E-BP1 Thr37/46) in PC3 cells. The experiment can be described thus: mTOR target engagement assay, immunofluorescent cell-based, mTORC1 readout. To be noted: rated class, 90 min treatment, read-out: P4EBP1 IC50. The procedure:
The target engagement of mTOR kinase inhibitors was evaluated using an immunofluorescent cell-based assay. In this assay, inhibition of mTORC1 activity was measured by the reduction in the level of phosphorylated 4E-BP1Thr37/46 (p4E-BP1 Thr37/46), and inhibition of mTORC2 activity was measured by the reduction of phosphorylated AKTSer473 (pAKT S473).
PC3 cells (prostate tumor cell-line that contains a mutation in the tumor suppressor PTEN, that promotes the phosphorylation and activation of AKT and 4E-BP1) were used in the immunofluorescence assay. PC3 cells were seeded on 384 well plates (black clear bottom, Matrix #4332) overnight. PC3 cells were then treated with 40 μl of the serially diluted test compounds (in 5% fetal bovine serum, F12 medium containing 0.25% DMSO) for ninety minutes at 37° C. The test compound solution was removed, and the plates were washed gently two times with 25 μl phosphate buffered saline (PBS). The cells were fixed by adding 25 μl of Prefer reagent (from Anatech LTD, Cat#414, a glyoxal fixative for fixing proteins within a cell) for sixty minutes followed by three washes with PBS. 5% Goat serum in PBS/0.3% Triton was used to block non-specific binding (60 minutes).
The primary antibodies targeting pAKT S473 and p4E-BP1 Thr37/46 were diluted into PBS/0.3% Triton and incubated with the cells overnight at 4° C. The antibodies targeting pAKTS473 (Cat#4085, Cell signaling) and p4E-BP1 Thr37/46 (Cat#2855, Cell signaling) were used at a 1:100 dilution. Plates were washed three times with PBS/0.1% Tween 20 before adding the secondary antibody at a 1:200 dilution. (goat anti-rabbit containing a fluorescent label, Alexa Fluor 488, Cat#A11008, Invitrogen) in PBS/0.3% Triton for 60 minutes.
Finally, the plates were washed three times with PBS/0.1% Tween 20 and the fluorescent intensity was read using an Analyst HT from Molecular Devices. The fluorescent intensity values from the serially diluted compound treatment group were analyzed using the Xlfit 4 program ([…]) (Formula 205: Y=Bottom+(Top-Bottom)/(1+(IC50/X)^Hillslope) to generate the IC50 value. Where Top is the maximum signal without Compound (+DMSO only) and Bottom represents maximum inhibition. Y is the fluorescence at some compound concentration. The control used to determine the fluorescent intensities for 100% pAKT S473 or 100% phosphorylated p4E-BP1 Thr37/46 were measured from untreated wells that contained only DMSO, instead of test compound.

A further experiment addresses human mTOR enzyme (Homo sapiens, UniProt P42345). The experiment can be described thus: HTRF mTOR enzyme (kinase) assay. The format is biochemical. To be noted: rated class; 5 μM ATP, 0.2 μM GST-S6K; read-out: hMTOR IC50.

Read-outs that look alike come from different tables or passages of the source.

Sequence of human mTOR enzyme (P42345 1360-2549 limits assumed): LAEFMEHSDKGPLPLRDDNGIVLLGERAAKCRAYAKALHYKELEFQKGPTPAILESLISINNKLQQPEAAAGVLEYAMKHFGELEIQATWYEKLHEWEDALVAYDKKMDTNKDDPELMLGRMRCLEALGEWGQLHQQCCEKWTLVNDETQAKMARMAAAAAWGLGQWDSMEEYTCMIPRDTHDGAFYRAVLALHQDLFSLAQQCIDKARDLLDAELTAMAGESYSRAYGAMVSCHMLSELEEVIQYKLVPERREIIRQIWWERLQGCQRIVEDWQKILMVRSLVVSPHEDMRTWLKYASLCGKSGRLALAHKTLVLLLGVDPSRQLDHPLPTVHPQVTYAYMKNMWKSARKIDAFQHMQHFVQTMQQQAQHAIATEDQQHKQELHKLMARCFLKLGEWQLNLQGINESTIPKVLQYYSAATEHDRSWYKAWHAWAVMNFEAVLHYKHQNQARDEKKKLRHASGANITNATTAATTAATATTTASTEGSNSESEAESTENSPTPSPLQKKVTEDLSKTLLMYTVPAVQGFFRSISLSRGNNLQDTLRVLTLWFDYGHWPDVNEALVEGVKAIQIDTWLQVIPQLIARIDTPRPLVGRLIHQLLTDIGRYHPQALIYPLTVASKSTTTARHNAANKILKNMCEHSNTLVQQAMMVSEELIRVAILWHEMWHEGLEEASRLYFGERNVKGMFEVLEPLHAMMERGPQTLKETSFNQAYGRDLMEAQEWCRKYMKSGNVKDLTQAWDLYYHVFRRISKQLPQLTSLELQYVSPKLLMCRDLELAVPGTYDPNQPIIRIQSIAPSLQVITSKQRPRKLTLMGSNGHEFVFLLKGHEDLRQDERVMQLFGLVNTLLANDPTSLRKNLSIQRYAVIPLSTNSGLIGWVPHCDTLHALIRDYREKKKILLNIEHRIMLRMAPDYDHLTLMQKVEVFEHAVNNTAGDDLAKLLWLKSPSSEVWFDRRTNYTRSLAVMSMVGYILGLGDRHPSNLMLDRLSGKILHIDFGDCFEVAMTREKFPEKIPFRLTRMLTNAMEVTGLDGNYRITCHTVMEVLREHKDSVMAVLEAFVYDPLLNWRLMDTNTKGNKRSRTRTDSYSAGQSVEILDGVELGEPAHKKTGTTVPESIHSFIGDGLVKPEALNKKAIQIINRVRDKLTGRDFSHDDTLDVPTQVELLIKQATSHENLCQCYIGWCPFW

One may read the IC50 as the concentration that gives 50% inhibition. As for `CO[C@]1(C(=O)O)CC[C@H](c2nc3c(-c4cnn(-c5ccccc5)c4)cnn3c(N)c2C(C)=O)CC1` [Compound 37, (1S,4S)-4-(6-acetyl-7-amino-3-(1-phenyl-1H-pyrazol-4-yl)pyrazolo[1,5-a]pyrimidin-5-yl)-1-methoxycyclohexane-carboxylic acid], the IC50 in experiment [1] (Homo sapiens, PC-3, 1.5 h) was 1 to 100 nM; in experiment [2] (Homo sapiens, PC-3, 1.5 h) it was 100 to 1000 nM; on human mTOR enzyme it was 1 to 100 nM.

As to `COCCO[C@]1(C(=O)NN2CCOCC2)CC[C@@H](c2nc3c(-c4cnn(-c5ccccc5)c4)cnn3c(N)c2S(C)(=O)=O)CC1` [Compound 96, (1R,4R)-4-(7-amino-6-(methylsulfonyl)-3-(1-phenyl-1H-pyrazol-4-yl)pyrazolo[1,5-a]pyrimidin-5-yl)-1-(2-methoxyethoxy)-N-morpholinocyclohexane-carboxamide], the half-maximal inhibitory concentration (IC50) was in the range of 100 to 1000 nM in experiment [1] (Homo sapiens, PC-3, 1.5 h); 1000 to 2000 nM in experiment [2] (Homo sapiens, PC-3, 1.5 h); 1 to 100 nM at human mTOR enzyme.

Take `CS(=O)(=O)c1c(C2CCC(O)(CO)CC2)nc2c(-c3cnn(-c4ccccc4)c3)cnn2c1N` (stereo not drawn) [Compound 166, 4-(7-amino-6-(methylsulfonyl)-3-(1-phenyl-1H-pyrazol-4-yl)pyrazolo[1,5-a]pyrimidin-5-yl)-1-(hydroxymethyl)cyclohexanol]: the IC50 in experiment [1] (Homo sapiens, PC-3, 1.5 h) lay within 1 to 100 nM; in experiment [2] (Homo sapiens, PC-3, 1.5 h), 100 to 1000 nM; on human mTOR enzyme, 1 to 100 nM.

Consider `COCCO[C@]1(C(=O)O)CC[C@@H](c2nc3c(-c4ccc(-c5ccccc5)nc4)cnn3c(N)c2Br)CC1` [Compound 64, (1R,4R)-4-(7-amino-6-bromo-3-(6-phenylpyridin-3-yl)pyrazolo[1,5-a]pyrimidin-5-yl)-1-(2-methoxyethoxy)cyclohexanecarboxylic acid], for which the IC50 was 100 to 1000 nM in experiment [1] (Homo sapiens, PC-3, 1.5 h); 100 to 1000 nM in experiment [2] (Homo sapiens, PC-3, 1.5 h); 1 to 100 nM at human mTOR enzyme.

Turning to `CC(=O)c1c(N)n2ncc(-c3ccc(-c4ccccc4)nc3)c2nc1[C@H]1CC[C@](O)(CO)CC1` [Compound 140, 1-(7-amino-5-((1S,4S)-4-hydroxy-4-(hydroxymethyl)cyclohexyl)-3-(6-phenylpyridin-3-yl)pyrazolo[1,5-a]pyrimidin-6-yl)ethanone], the IC50 in experiment [1] (Homo sapiens, PC-3, 1.5 h) lay within 1 to 100 nM; in experiment [2] (Homo sapiens, PC-3, 1.5 h), 100 to 1000 nM; on human mTOR enzyme, 1 to 100 nM.

Take `CO[C@]1(C(=O)O)CC[C@@H](c2nc3c(-c4ccc(-c5ccccc5)nc4)cnn3c(N)c2Br)CC1` [Compound 29, (1R,4R)-4-(7-amino-6-bromo-3-(6-phenylpyridin-3-yl)pyrazolo[1,5-a]pyrimidin-5-yl)-1-methoxycyclohexane-carboxylic acid]: the half-inhibitory concentration (IC50) in experiment [1] (Homo sapiens, PC-3, 1.5 h) was 100 to 1000 nM; in experiment [2] (Homo sapiens, PC-3, 1.5 h), 100 to 1000 nM; on human mTOR enzyme, 1 to 100 nM.

With `CO[C@]1(C(=O)O)CC[C@H](c2nc3c(-c4ccc(-c5ccccc5)nc4)cnn3c(N)c2Br)CC1` [Compound 28, (1S,4S)-4-(7-amino-6-bromo-3-(6-phenylpyridin-3-yl)pyrazolo[1,5-a]pyrimidin-5-yl)-1-methoxycyclohexanecarboxylic acid], the IC50 lay in the range of 1 to 100 nM in experiment [1] (Homo sapiens, PC-3, 1.5 h); 100 to 1000 nM in experiment [2] (Homo sapiens, PC-3, 1.5 h); 1 to 100 nM at human mTOR enzyme.

For `COCCNC(=O)[C@]1(OCCOC)CC[C@H](c2nc3c(-c4cnn(-c5ccccc5)c4)cnn3c(N)c2S(C)(=O)=O)CC1` [Compound 93, (1R,4R)-4-(7-amino-6-(methylsulfonyl)-3-(1-phenyl-1H-pyrazol-4-yl)pyrazolo[1,5-a]pyrimidin-5-yl)-1-(2-methoxyethoxy)-N-(2-methoxyethyl)-cyclohexane-carboxamide], the half-maximal inhibitory concentration (IC50) in experiment [1] (Homo sapiens, PC-3, 1.5 h) fell in the range of 100 to 1000 nM; in experiment [2] (Homo sapiens, PC-3, 1.5 h) it was 1000 to 2000 nM; at human mTOR enzyme, 1 to 100 nM.

As to `COCCO[C@]1(C(N)=O)CC[C@H](c2nc3c(-c4ccc(-c5ncc[nH]5)nc4)cnn3c(N)c2C(C)=O)CC1` [Compound 113, (1S,4S)-4-(3-(6-(1H-imidazol-2-yl)pyridin-3-yl)-6-acetyl-7-aminopyrazolo[1,5-a]pyrimidin-5-yl)-1-(2-methoxyethoxy) cyclohexanecarboxamide], the IC50 in experiment [1] (Homo sapiens, PC-3, 1.5 h) was in the range of 100 to 1000 nM; in experiment [2] (Homo sapiens, PC-3, 1.5 h), 100 to 1000 nM; on human mTOR enzyme, 1 to 100 nM.

For `C[C@]1(C(=O)O)CC[C@@H](c2nc3c(-c4ccc(-c5ccccc5)nc4)cnn3c(N)c2C#N)CC1` [Compound 26, (1S,4S)-4-(7-amino-6-cyano-3-(6-phenylpyridin-3-yl)pyrazolo[1,5-a]pyrimidin-5-yl)-1-methylcyclohexanecarboxylic acid], the concentration for half-maximal inhibition (IC50) was in the range of 1 to 100 nM in experiment [1], 100 to 1000 nM in experiment [2] and 1 to 100 nM at human mTOR enzyme.

With `COCCO[C@]1(C(=O)O)CC[C@@H](c2nc3c(-c4cnn(-c5ccccc5)c4)cnn3c(N)c2C#N)CC1` [Compound 69, (1R,4R)-4-(7-amino-6-cyano-3-(1-phenyl-1H-pyrazol-4-yl)pyrazolo[1,5-a]pyrimidin-5-yl)-1-(2-methoxyethoxy)cyclohexanecarboxylic acid], the IC50 in experiment [1] (Homo sapiens, PC-3, 1.5 h) fell in the range of 1 to 100 nM; in experiment [2] (Homo sapiens, PC-3, 1.5 h), 1 to 100 nM; at human mTOR enzyme it was 1 to 100 nM.

Take `COCCO[C@]1(c2nnn[nH]2)CC[C@@H](c2nc3c(-c4ccc(-c5ccccc5)nc4)cnn3c(N)c2S(C)(=O)=O)CC1` [Compound 119]: the IC50 in experiment [1] (Homo sapiens, PC-3, 1.5 h) was 1000 to 2000 nM; in experiment [2] (Homo sapiens, PC-3, 1.5 h) it was 2000 to 5000 nM; at human mTOR enzyme it was 1 to 100 nM.

As to `COCCO[C@]1(C(=O)CO)CC[C@@H](c2nc3c(-c4cnn(-c5ccccc5)c4)cnn3c(N)c2S(C)(=O)=O)CC1` [Compound 129, 1-((1R,4R)-4-(7-amino-6-(methylsulfonyl)-3-(1-phenyl-1H-pyrazol-4-yl)pyrazolo[1,5-a]pyrimidin-5-yl)-1-(2-methoxyethoxy)cyclohexyl)-2-hydroxyethanone], the IC50 lay within 1 to 100 nM in experiment [1] (Homo sapiens, PC-3, 1.5 h); 100 to 1000 nM in experiment [2] (Homo sapiens, PC-3, 1.5 h); 1 to 100 nM on human mTOR enzyme.

Turning to `Nc1c(Br)c([C@H]2CC[C@](O)(CC(=O)O)CC2)nc2c(-c3cnn(-c4ccccc4)c3)cnn12` [Compound 78, 2-((1S,4S)-4-(7-amino-6-bromo-3-(1-phenyl-1H-pyrazol-4-yl)pyrazolo[1,5-a]pyrimidin-5-yl)-1-hydroxycyclohexyl)-acetic acid], the IC50 was in the range of 100 to 1000 nM in experiment [1] (Homo sapiens, PC-3, 1.5 h); 100 to 1000 nM in experiment [2] (Homo sapiens, PC-3, 1.5 h); 1 to 100 nM on human mTOR enzyme.

For the molecule `COCCO[C@]1(C(N)=O)CC[C@@H](c2nc3c(-c4cnn(-c5ccccc5)c4)cnn3c(N)c2S(C)(=O)=O)CC1` [Compound 110, (1R,4R)-4-(7-amino-6-(methylsulfonyl)-3-(1-phenyl-1H-pyrazol-4-yl)pyrazolo[1,5-a]pyrimidin-5-yl)-1-(2-methoxyethoxy)cyclohexanecarboxamide], the IC50 was in the range of 1 to 100 nM in experiment [1] (Homo sapiens, PC-3, 1.5 h); 1 to 100 nM in experiment [2] (Homo sapiens, PC-3, 1.5 h); 1 to 100 nM on human mTOR enzyme.

`CC(=O)c1c(N)n2ncc(-c3ccc(-c4ccccc4)nc3)c2nc1[C@H]1CC[C@@](O)(CO)CC1` [Compound 139, 1-(7-amino-5-((1R,4R)-4-hydroxy-4-(hydroxymethyl)cyclohexyl)-3-(6-phenylpyridin-3-yl)pyrazolo[1,5-a]pyrimidin-6-yl)ethanone]: the half-maximal inhibitory concentration (IC50) was 100 to 1000 nM in experiment [1] (Homo sapiens, PC-3, 1.5 h); 100 to 1000 nM in experiment [2] (Homo sapiens, PC-3, 1.5 h); 1 to 100 nM on human mTOR enzyme.

Consider `CC(=O)c1c(N)n2ncc(-c3ccc(-c4ccccc4)nc3)c2nc1[C@H]1CC[C@](C)(C(=O)O)CC1` [Compound 15, (1R,4R)-4-(6-acetyl-7-amino-3-(6-phenylpyridin-3-yl)pyrazolo[1,5-a]pyrimidin-5-yl)-1-methylcyclohexanecarboxylic acid], for which the 50% inhibitory concentration (IC50) is 100 to 1000 nM in experiment [1] (Homo sapiens, PC-3, 1.5 h); 100 to 1000 nM in experiment [2] (Homo sapiens, PC-3, 1.5 h); 1 to 100 nM at human mTOR enzyme.

Regarding `COCCO[C@]1(C(=O)O)CC[C@@H](c2nc3c(-c4cnc(-c5ncc(C)s5)nc4)cnn3c(N)c2S(C)(=O)=O)CC1` [Compound 51, (1R,4R)-4-(7-amino-6-(methylsulfonyl)-3-(2-(5-methylthiazol-2-yl)pyrimidin-5-yl)pyrazolo[1,5-a]pyrimidin-5-yl)-1-(2-methoxyethoxy) cyclohexanecarboxylic acid], the IC50 in experiment [1] (Homo sapiens, PC-3, 1.5 h) was 100 to 1000 nM; in experiment [2] (Homo sapiens, PC-3, 1.5 h), 1000 to 2000 nM; at human mTOR enzyme, 1 to 100 nM.

These data come from patent US8883801B2, “Substituted pyrazolo[1,5-a]pyrimidines as mTOR inhibitors” (Merck Sharp & Dohme Corp., priority 2010, dated 2014).
